Test results from patent publication US8741897B2, “Glucocorticoid mimetics, methods of making them, pharmaceutical compositions and uses thereof” (Boehringer Ingelheim Pharmaceuticals Inc., priority 2003, dated 2014).

Biological target: T1, human glucocorticoid receptor (GR) complex (Homo sapiens, UniProt P04150)
T1 construct: made in house; host or cells: insect expression system (baculovirus lysate)
T1 sequence (P04150 1-777): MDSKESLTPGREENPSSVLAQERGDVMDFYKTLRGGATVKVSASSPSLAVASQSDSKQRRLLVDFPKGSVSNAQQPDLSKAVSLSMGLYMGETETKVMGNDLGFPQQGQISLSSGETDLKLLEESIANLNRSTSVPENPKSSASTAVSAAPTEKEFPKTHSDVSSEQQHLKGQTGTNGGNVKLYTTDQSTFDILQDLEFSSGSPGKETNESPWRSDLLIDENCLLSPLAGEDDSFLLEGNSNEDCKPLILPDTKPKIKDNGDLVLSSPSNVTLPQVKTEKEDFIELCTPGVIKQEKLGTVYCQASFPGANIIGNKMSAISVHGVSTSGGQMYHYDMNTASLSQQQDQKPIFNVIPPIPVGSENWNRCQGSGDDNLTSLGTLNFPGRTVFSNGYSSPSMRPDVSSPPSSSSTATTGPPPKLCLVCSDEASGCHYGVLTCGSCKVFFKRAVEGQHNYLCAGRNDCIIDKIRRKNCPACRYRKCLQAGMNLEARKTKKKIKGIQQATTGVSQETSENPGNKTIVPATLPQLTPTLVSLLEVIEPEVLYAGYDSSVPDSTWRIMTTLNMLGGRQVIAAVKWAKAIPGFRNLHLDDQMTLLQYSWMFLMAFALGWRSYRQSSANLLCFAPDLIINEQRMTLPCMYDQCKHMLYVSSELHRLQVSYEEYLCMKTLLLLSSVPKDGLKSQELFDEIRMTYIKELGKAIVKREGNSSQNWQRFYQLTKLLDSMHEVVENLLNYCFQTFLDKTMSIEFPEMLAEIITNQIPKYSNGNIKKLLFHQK
Experiment: Glucocorticoid receptor competitive binding assay (fluorescence polarization, TAMRA-labeled dexamethasone probe)
Details: compounds of Formula (IA)
Experimental: Compounds of the invention were evaluated for binding to the steroid receptor by a fluorescence polarization competitive binding assay. Detailed descriptions for preparation of recombinant glucocorticoid receptor (GR) complex used in the assay is described in U.S. patent application Pub.
A. Glucocorticoid Receptor Competitive Binding Assay
Step 1. Characterization of the Fluorescent Probe
The wavelengths for maximum excitation and emission of the fluorescent probe should first be measured. An example of such a probe is rhodamine (TAMRA)-labeled dexamethasone.
The affinity of the probe for the steroid receptor was then determined in a titration experiment. The fluorescence polarization value of the probe in assay buffer was measured on an SLM-8100 fluorometer using the excitation and emission maximum values described above. Aliquots of expression vector lysate were added and fluorescence polarization was measured after each addition until no further change in polarization value was observed. Non-linear least squares regression analysis was used to calculate the dissociation constant of the probe from the polarization values obtained for lysate binding to the probe.
Step 2. Screening for Inhibitors of Probe Binding
This assay uses fluorescence polarization (FP) to quantitate the ability of test compounds to compete with tetramethyl rhodamine (TAMRA)-labeled dexamethasone for binding to a human glucocorticoid receptor (GR) complex prepared from an insect expression system. The assay buffer was: 10 mM TES, 50 mM KCl, 20 mM Na2MoO4.2H2O, 1.5 mM EDTA, 0.04% w/v CHAPS, 10% v/v glycerol, 1 mM dithiothreitol, pH 7.4. Test compounds were dissolved to 1 mM in neat DMSO and then further diluted to 10× assay concentration in assay buffer supplemented with 10% v/v DMSO. Test compounds were serially diluted at 10× assay concentrations in 10% DMSO-containing buffer in 96-well polypropylene plates. Binding reaction mixtures were prepared in 96-well black Dynex microtiter plates by sequential addition of the following assay components to each well: 15 μL of 10× test compound solution, 85 μL of GR-containing baculovirus lysate diluted 1:170 in assay buffer, and 50 μL of 15 nM TAMRA-labeled dexamethasone. Positive controls were reaction mixtures containing no test compound; negative controls (blanks) were reaction mixtures containing 0.7 μM to 2 μM dexamethasone. […] IC50 values were determined by iterative non-linear curve fitting of the FP signal data to a 4-parameter logistic equation.

Structure (SMILES)	activity in the GR binding assay
CC(C)(CC(O)(Cc1cc2ccccc2[nH]1)C(F)(F)F)c1ccc(C(F)(F)F)cc1 (stereo not drawn) [1,1,1-Trifluoro-2-(1H-indol-2-ylmethyl)-4-methyl-4-(4-trifluoromethylphenyl)pentan-2-ol]	potent activity
COc1ccc(F)cc1C(C)(C)CC(O)(Cc1cc2cc(C(=O)N3CCCCC3)ccc2[nH]1)C(F)(F)F (stereo not drawn) [{2-[4-(5-Fluoro-2-methoxyphenyl)-2-hydroxy-4-methyl-2-trifluoromethylpentyl]-1H-indol-5-yl}piperidin-1-ylmethanone]	potent activity
COc1ccc(F)cc1C(C)(C)CC(O)(Cc1cc2cc(C(=O)OCC[Si](C)(C)C)ccc2[nH]1)C(F)(F)F (stereo not drawn) [2-[4-(5-Fluoro-2-methoxyphenyl)-2-hydroxy-4-methyl-2-trifluoromethylpentyl]-1H-indole-5-carboxylic acid-2-trimethylsilanylethyl ester]	potent activity
COc1ccc(F)cc1C(C)(C)CC(O)(Cc1cc2ccc(C(=O)N(C)C)cc2[nH]1)C(F)(F)F (stereo not drawn) [2-[4-(5-Fluoro-2-methoxyphenyl)-2-hydroxy-4-methyl-2-trifluoromethylpentyl]-1H-indole-6-carboxylic acid dimethylamide]	potent activity
Cc1ccc(F)cc1C(C)(C)CC(O)(Cc1cc2cc(=O)[nH]cc2[nH]1)C(F)(F)F (stereo not drawn) [2-[4-(5-Fluoro-2-methylphenyl)-2-hydroxy-4-methyl-2-trifluoromethylpentyl]-1,6-dihydropyrrolo[2,3-c]pyridin-5-one]	potent activity
COc1ccc(F)cc1C(C)(C)CC(O)(Cc1cc2cc(C(=O)N3CCC(O)CC3)ccc2[nH]1)C(F)(F)F (stereo not drawn) [{2-[4-(5-Fluoro-2-methoxyphenyl)-2-hydroxy-4-methyl-2-trifluoromethylpentyl]-1H-indol-5-yl}(4-hydroxypiperidin-1-yl)methanone]	potent activity
COc1ccc(F)cc1C(C)(C)CC(O)(Cc1cc2cnccc2o1)C(F)(F)F (stereo not drawn) [1,1,1-Trifluoro-4-(5-fluoro-2-methoxyphenyl)-2-furo[3,2-c]pyridin-2-ylmethyl-4-methylpentan-2-ol]	potent activity
COc1ccc(F)cc1C(C)(C)CC(O)(Cn1ccc2ncccc21)C(F)(F)F (stereo not drawn) [1,1,1-Trifluoro-4-(5-fluoro-2-methoxyphenyl)-4-methyl-2-pyrrolo[3,2-b]pyridin-1-ylmethylpentan-2-ol]	potent activity
CC(C)(CC(O)(Cc1cc2cc(C(=O)O)ccc2[nH]1)C(F)(F)F)c1cc(Br)cc2c1OCC2 (stereo not drawn) [2-[4-(5-Bromo-2,3-dihydrobenzofuran-7-yl)-2-hydroxy-4-methyl-2-trifluoromethylpentyl]-1H-indole-5-carboxylic acid]	potent activity
COc1ccc(F)cc1C(C)(C)CC(O)(Cc1cc2cc(C(=O)NCC(=O)O)ccc2[nH]1)C(F)(F)F (stereo not drawn) [({2-[4-(5-Fluoro-2-methoxyphenyl)-2-hydroxy-4-methyl-2-trifluoromethylpentyl]-1H-indole-5-carbonyl}amino)acetic acid]	potent activity
CC(C)(CC(O)(Cc1cc2cc(-c3ccccc3)ccc2[nH]1)C(F)(F)F)c1cc(F)cc2c1OCC2 (stereo not drawn) [1,1,1-Trifluoro-4-(5-fluoro-2,3-dihydrobenzofuran-7-yl)-4-methyl-2-(5-phenyl-1H-indol-2-ylmethyl)pentan-2-ol]	potent activity
CC(C)(CC(O)(Cc1cc2ccc(C(=O)N3CCOCC3)cc2[nH]1)C(F)(F)F)c1cc(F)ccc1O (stereo not drawn) [{2-[4-(5-Fluoro-2-hydroxyphenyl)-2-hydroxy-4-methyl-2-trifluoromethylpentyl]-1H-indol-6-yl}morpholin-4-ylmethanone]	potent activity
CC(C)(CC(O)(Cc1cc2ccccc2[nH]1)C(F)(F)F)c1cccc(-c2ccccc2)c1 (stereo not drawn) [4-Biphenyl-3-yl-1,1,1-trifluoro-2-(1H-indol-2-ylmethyl)-4-methylpentan-2-ol]	potent activity
CC(C)(CC(O)(Cc1ccnc2ccccc12)C(F)(F)F)c1ccncc1 (stereo not drawn) [1,1,1-Trifluoro-4-methyl-4-pyridin-4-yl-2-quinolin-4-ylmethylpentan-2-ol]	potent activity
COc1ccc(F)cc1C(C)(C)CC(O)(Cc1cc2cc(C(=O)NCCCC(=O)O)ccc2[nH]1)C(F)(F)F (stereo not drawn) [4-({2-[4-(5-Fluoro-2-methoxyphenyl)-2-hydroxy-4-methyl-2-trifluoromethylpentyl]-1H-indole-5-carbonyl}amino)butyric acid]	potent activity
CN(C)c1ccc(C(C)(C)CC(O)(Cc2cc3ccccc3[nH]2)C(F)(F)F)cc1 (stereo not drawn) [4-(4-Dimethylaminophenyl)-1,1,1-trifluoro-2-(1H-indol-2-ylmethyl)-4-methylpentan-2-ol]	potent activity
Cc1cccc2c(CC(O)(CC(C)(C)c3cc(F)ccc3O)C(F)(F)F)cc(Cl)nc12 (stereo not drawn) [2-[3-(2-Chloro-8-methylquinolin-4-ylmethyl)-4,4,4-trifluoro-3-hydroxy-1,1-dimethylbutyl]-4-fluorophenol]	potent activity
COc1ccc(F)cc1C(C)(C)CC(O)(Cc1cc2ccc(C(=O)N3CCOCC3)cc2[nH]1)C(F)(F)F (stereo not drawn) [{2-[4-(5-Fluoro-2-methoxyphenyl)-2-hydroxy-4-methyl-2-trifluoromethylpentyl]-1H-indol-6-yl}morpholin-4-ylmethanone]	potent activity
COc1ccc(F)cc1C(C)(C)CC(O)(Cc1cc2cnccc2s1)C(F)(F)F (stereo not drawn) [1,1,1-Trifluoro-4-(5-fluoro-2-methoxyphenyl)-4-methyl-2-thieno[3,2-c]pyridin-2-ylmethylpentan-2-ol]	potent activity
COc1ccc(F)cc1C(C)(C)CC(O)(Cc1cc2cc(C(=O)N3CCC(=O)CC3)ccc2[nH]1)C(F)(F)F (stereo not drawn) [1-{2-[4-(5-Fluoro-2-methoxyphenyl)-2-hydroxy-4-methyl-2-trifluoromethylpentyl]-1H-indole-5-carbonyl}piperidin-4-one]	potent activity
CC(C)(CC(O)(Cc1[nH]c2ccccc2c1Br)C(F)(F)F)c1cccc(F)c1 (stereo not drawn) [2-(3-Bromo-1H-indol-2-ylmethyl)-1,1,1-trifluoro4-(3-fluorophenyl)-4-methylpentan-2-ol]	potent activity
CC(C)(CC(O)(Cc1cc2cnccc2s1)C(F)(F)F)c1cc(Cl)cc2c1OCC2 (stereo not drawn) [4-(5-Chloro-2,3-dihydrobenzofuran-7-yl)-1,1,1-trifluoro-4-methyl-2-thieno[3,2-c]pyridin-2-ylmethylpentan-2-ol]	potent activity
Cc1ccc(F)cc1C(C)(C)CC(O)(Cc1cc2cc(=O)n(C)cc2[nH]1)C(F)(F)F (stereo not drawn) [2-[4-(5-Fluoro-2-methylphenyl)-2-hydroxy-4-methyl-2-trifluoromethylpentyl]-6-methyl-1,6-dihydropyrrolo[2,3-c]pyridin-5-one]	potent activity
COc1ccc(F)cc1C(C)(C)CC(O)(Cc1cc2ccc(C(N)=O)cc2[nH]1)C(F)(F)F (stereo not drawn) [2-[4-(5-Fluoro-2-methoxyphenyl)-2-hydroxy-4-methyl-2-trifluoromethylpentyl]-1H-indole-6-carboxylic acid amide]	potent activity
